Reference: US20180369342A1, “CARDIAC METABOLIC EFFECT OF LANTUS” (Sanofi-Aventis Deutschland GmbH, priority 2015, published 2018)
“Also recorded” adds a separate entry of the source.

Tests used:
C57bl/6 mouse hearts = test: Isolated working heart perfusion, cardiac energy metabolism (acute treatment), C57bl/6; conditions: for % ATP from glucose oxidation / % ATP from palmitate oxidation / cardiac efficiency: C57bl/6 mouse hearts; for glucose oxidation / palmitate oxidation: isolated working C57bl/6 mouse hearts, 10 wk old
Procedure: (§1) The effect of three different types of insulin, human insulin, insulin degludec, and the M1 metabolite of insulin glargine, on cardiac metabolism was determined in adult, 10 weeks old mice using either healthy C57Bl6 wildtype mice or Type-2 diabetes db/db mice. Mice were fed a standard chow diet and kept in 12 hr light: 12 hr dark cycle. To test their acute effect energy metabolism, hearts were removed from fully anesthetized mice, and perfused as isolated working hearts with Krebs Henseleit buffer (118.5 mM NaCl, 1.2 mM MgSO4, 25 mM NaHCO3, 4.7 mM KCl, 1.2 mM KH2PO4, 2.5 mM CaCl2) supplemented with 0.8 mM palmitate bound to 3% fatty acid-free bovine serum albumin (BSA), 5 mM glucose, and 0.5 mM lactate. Hearts underwent aerobic perfusion for 72 min with vehicle or increasing amounts of insulin (0, 25, 50, 100 μU/ml), insulin Degludec (0, 100, 300, 1000 μU/ml), or the M1 metabolite of insulin Glargine (0, 25, 50, 100 μU/ml). Each concentration escalation step lasted 18 minutes. At the end of the heart perfusion hearts were immediately snap frozen in liquid N2 and stored at −80° C. See FIG. 1 In order to measure glucose oxidation, glycolysis, palmitate oxidation, and lactate oxidation [U-^14C] glucose, [5-^3H] glucose, [9, 10-^3H] palmitate, and [U-^14C] lactate, respectively, were added to the perfusate as described above in Example 1. Glycolysis and palmitate oxidation rates were determined based on the rates of ^3H2O production. To determine glucose oxidation and lactate oxidation rates ^14CO2 production was assessed.

db/db mouse hearts = test: Isolated working heart perfusion, cardiac energy metabolism (acute treatment), db/db; conditions: for glucose oxidation / palmitate oxidation: isolated working db/db mouse hearts, 10 wk old
Procedure: as §1

db/db mice [1] = test: Chronic treatment of db/db mice: blood glucose and glucose tolerance; format: in vivo, mouse; conditions: 18 week old db/db mice; for blood glucose levels: 5 U/kg BW daily, data not shown; for blood glucose tolerance: 150 U/kg BW daily for 4 weeks
Procedure: (§2) In a second set 18 week old db/db mice were treated with vehicle, NPH insulin, Degludec, or Lantus daily for 4 weeks (see FIG. 8). 18 wk old db/db mice were specifically used because by this age they have a diastolic dysfunction. The original protocol involved treating the mice with either NPH insulin (5 U/kg BW), Degludec (5 U/kg BW), or Lantus (5 U/kg BW). […] Other groups have reported that a higher dose of insulin is required to control hyperglycemia in db/db mice. The highest dose that had been reported to be safe, was 150 U/kg BW, which was then used for future experiments. Treating the mice with 150 U/kg BW of NPH insulin, Degludec, or Lantus improved blood glucose tolerance much more dramatically (FIG. 9). At the end of the 4 week treatment period, the cardiac energy metabolism and function was assessed via echocardiography. The Vevo 770 high resolution echocardiography imaging system was used to assess in vivo cardiac function was assessed in isoflurane anesthetized mice.

Akt = test: Western Blot Analysis of cardiac Akt phosphorylation after acute treatment; conditions: db/db mouse hearts
Procedure: The phosphorylation status of several enzymes involved in insulin signaling were also assessed in the C57bl/6 and db/db mouse hearts treated acutely with insulin, Degludec, or Lantus, via Western Blot Analysis. Frozen heart issue was homogenized for 30 sec in homogenization buffer (50 mM Tris HCl, 10% glycerol, 1 mM EDTA, 0.02% Brij-35, 1 mM DTT, and protease and phosphatase inhibitors (Sigma)). After sitting on ice at least 10 min, tissue homogenates were centrifuged at 10,000×g for 20 min. The supernatant was then stored at −80° C. Protein concentration of supernatant was determined using the Bradford protein assay. After running samples on SDS-polyacrylamide gel electrophoresis, protein was transferred onto nitrocellulose membrane. Primary antibodies included pAkt Ser473 (Cell Signaling 9271), Akt (Cell Signaling 9272), pGSK3α/β Ser21/9 (Cell Signaling 9331), GSK3β (Cell Signaling 9315), pPDH Ser293 (Calbiochem AP1062), and PDH (Cell Signaling 2784). Protein bands were visualized on autoradiography film using enhanced chemiluminescence (Perkin Elmer) and quantified with Image J.

db/db mice [2] = test: Chronic treatment of db/db mice: in vivo cardiac function by echocardiography; design: species or system mouse; conditions: chronic treatment 4 weeks
Procedure: The long-term effects of insulin treatment on cardiac function was assessed in two different settings. In acute treatments, measurements were performed in isolated working hearts from either wildtype mice (C57Bl) or mice with a diabetes type-2 phenotype (db/db mice). In a second chronic setting, db/db animals were treated for 4 weeks with daily administration of different high doses of insulins to achieve similar effects on systemic hypergycaemia. At the end of the chronic study, effects on cardiac function was assessed by echocardiography.
as §2

Substance	% ATP from glucose oxidation (C57bl/6 mouse hearts) [%]	% ATP from palmitate oxidation (C57bl/6 mouse hearts) [%]	glucose oxidation (C57bl/6 mouse hearts)	palmitate oxidation (C57bl/6 mouse hearts)	% ATP from glucose oxidation (db/db mouse hearts; db/db mouse hearts) [%]	% ATP from palmitate oxidation (db/db mouse hearts; db/db mouse hearts) [%]	glucose oxidation (db/db mouse hearts)	palmitate oxidation (db/db mouse hearts)	blood glucose levels (db/db mice [1])	blood glucose tolerance (db/db mice [1])	cardiac efficiency (C57bl/6 mouse hearts)	cardiac efficiency (db/db mouse hearts; db/db mouse hearts)	pAkt (Akt)	cardiac output (db/db mice [2])	cardiac stroke volume (db/db mice [2])	in vivo cardiac function (db/db mice [2])	in vivo cardiac function (db/db mice [2]; listed as lantus)
Degludec	12	62	not	not	5	75	not	not	did not reduce	improved							
Gly (A21) human insulin [M1-metabolite of insulin glargine]			able to stimulate	inhibit			able to stimulate	inhibit			improved	improved					
Gly (A21), Arg (B31), Arg (B32) human insulin [Lantus]	30	37	stimulates	decreases	14	56	stimulates	decreases	did not reduce	improved	improves		significantly increased	significantly increased; also recorded: improved	significantly increased; also recorded: improved	improved	improves
NPH insulin: long acting basal insulin									did not reduce	improved							
insulin: human insulin	18	55			13	53											
